Holding throughout (format): in vivo
One assay deals with Phytophthora infestans. As to the kind of experiment: whole plant or invertebrate. To be noted: for % Control of Tomato Late Blight: 100 ppm spray, day before inoculation; for pest or weed control at 100 ppm: Phytophthora infestans, in Solanum lycopersicum, 168 h, read-out: % Control of Tomato Late Blight, 100 ppm spray, day before inoculation.
Assay [1] relates to Puccinia recondita var. tritici. As to the kind of experiment: Wheat leaf rust control on sprayed wheat seedlings (Example 79). To be noted: 100 ppm spray, day before inoculation; for pest or weed control at 100 ppm: Puccinia recondita, 168 h. On the procedure: The compounds of this invention were dissolved in acetone in an amount equal to 6% of the final volume and then suspended at a concentration of 100 ppm in purified water containing 250 ppm of the surfactant TREM 014 (polyhydric alcohol esters). These suspensions were sprayed to the point of run-off on wheat seedlings. The following day, the plants were inoculated with a spore suspension of Puccinia recondita var. tritici, causal agent of wheat leaf rust, and incubated in a saturated humidity chamber at 20° for 24 hours and then in a growth room for an additional 7 days, when disease ratings were made. Treated plants from successful treatments had few or no rust pustules while the untreated plants had numerous rust pustules on each leaf.

In another assay the test system is Helminthosporium maydis. Description: Southern corn leaf blight control on sprayed corn seedlings (Example 83). To be noted: 100 ppm spray, day before inoculation; for pest or weed control at 100 ppm: Bipolaris maydis, 192 h. On the procedure: The compounds of the previous examples were again dissolved in acetone in an amount equal to 6% of the final volume and then suspended at a concentration of 100 ppm in purified water containing 250 ppm of the surfactant TREM 014 (polyhydric alcohol esters). These suspensions were sprayed to the point of run-off on corn seedlings. The following day, the plants were inoculated with a spore suspension of Helminthosporium maydis, causal agent of southern corn leaf blight, and incubated in a saturated humidity chamber at 20° for 24 hours and then in a growth room for an additional 7 days, when disease ratings were made. Treated plants from successful treatments had few or no lesions while the untreated plants had numerous lesions on each leaf. Phytotoxicity expressed as growth reduction was observed on some of the plants in association with disease control.

Another assay concerns Venturia inaequalis. Description: Apple scab control on sprayed apple seedlings (Example 82). To be noted: 100 ppm spray, day before inoculation; for pest or weed control at 100 ppm: Venturia inaequalis. On the procedure:
These suspensions were sprayed to the point of run-off on apple seedlings. The following day, the plants were inoculated with a spore suspension of the fungus Venturia inaequalis, causal agent of apple scab, and incubated in a saturated humidity chamber at 20° for 24 hours and then in a growth room for an additional 10-12 days. Treated plants from successful treatments had fewer apple scab lesions when compared to untreated plants which were covered with scab lesions. Phytotoxicity expressed as growth reduction was observed on some of the plants in association with disease control.

The subject of the next assay is Erysiphe cichoracearum. Description: Cucumber powdery mildew control on sprayed cucumber seedlings (Example 80). To be noted: 100 ppm spray, day before inoculation; for pest or weed control at 100 ppm: Golovinomyces cichoracearum, 168 h. On the procedure: These suspensions were sprayed to the point of run-off, on cucumber seedlings. The following day, the plants were inoculated with a spore suspension of the fungus Erysiphe cichoracearum, causal agent of cucumber powdery mildew, and incubated in a growth room for 7 days. Disease ratings were then made. Treated plants from successful treatments had little or no powdery mildew in contrast to untreated plants which were covered with powdery mildew. Phytotoxicity in the form of growth reduction or hormonal effects was observed on some of the plants in association with disease control.

The next assay relates to Pyricularia oryzae. As to the kind of experiment: whole plant or invertebrate. To be noted: for % Control of Rice Blast: 100 ppm spray, day before inoculation; for pest or weed control at 100 ppm: Pyricularia oryzae, 168 h, read-out: % Control of Rice Blast, 100 ppm spray, day before inoculation.
A further assay deals with Rhizoctonia solani. Description: Rice sheath blight control on sprayed rice seedlings (Example 87). To be noted: 100 ppm spray, day before inoculation; for pest or weed control at 100 ppm: Rhizoctonia solani, 168 h. On the procedure: The compounds of the previous examples were again dissolved in acetone in an amount equal to 6% of the final volume and then suspended at a concentration of 100 ppm in purified water containing 250 ppm of the surfactant TREM 014 (polyhydric alcohol esters). This suspension was sprayed to the point of run-off on rice seedlings. The following day, the plants were inoculated with a mixture of bran and the mycelium of Rhizoctonia solani, causal agent of sheath blight of rice, and incubated in a growth room for 7 days. Disease ratings were then made. Treated plants from successful treatments had little sheath blight in contrast to untreated plants which were covered with sheath blight.

For the next assay, the system named is Cercospora arachidicola. As to the kind of experiment: Peanut early leafspot control on sprayed peanut seedlings (Example 84). To be noted: 100 ppm spray, day before inoculation; for pest or weed control at 100 ppm: Mycosphaerella arachidis, 360 h, read-out: % Control Peanut Easly Leafspot. On the procedure: These suspensions were sprayed to the point of run-off on peanut seedlings. The following day, the plants were inoculated with a spore suspension of Cercospora arachidicola, causal agent of peanut early leafspot, and incubated in a saturated humidity chamber at 27° for 24 hours and then in a growth room for an additional 14 days, when disease ratings were made. Treated plants from successful treatments had few or no leafspots while the untreated plants had numerous leafspots.

Molecules are shown by their SMILES.

Consider `C[Si](C)(Cn1cncn1)c1ccc(-c2ccccc2)cc1.[Cl][Cu]` [1:1 complex of (1,1'-Biphenyl-4-yl)dimethyl(1H-1,2,4-triazol-1-ylmethyl)silane and Cuprous Chloride], for which the “% Control of Tomato Late Blight” value with Phytophthora infestans stood at 100%. In addition, the “% Control Wheat Rust” value in assay [1] is reported as 0%. In the assay on Helminthosporium maydis, the “% Control of Southern Corn Leaf Blight” value was determined as 100%. Moreover, the “% Control Apple Scab” value with Venturia inaequalis was determined as 100%. In addition, in the assay with Erysiphe cichoracearum, the “% Control Cucumber Powdery Mildew” value turned out to be 100%. Moreover, the “% Control of Rice Blast” value in the assay with Pyricularia oryzae amounted to 100%. Moreover, the “% Control of Rice Sheath Blight” value with Rhizoctonia solani is on record as 90%. The “% Control Peanut Easly Leafspot” value in the assay on Cercospora arachidicola was found to be 100%.
For the molecule `C[Si](Cn1cncn1)(c1ccccc1)c1ccccc1Cl` (stereo not drawn) [2-Chlorophenyl(methyl)phenyl(1H-1,2,4-triazol-1-ylmethyl)silane], the pest or weed control at 100 ppm was 0% in the assay on Phytophthora infestans; 80% in assay [1]; 100% with Helminthosporium maydis; 90% with Venturia inaequalis; 100% with Erysiphe cichoracearum; 100% with Pyricularia oryzae. For the same molecule, the pest or weed control at 100 ppm with Rhizoctonia solani stood at 90%; in the assay on Cercospora arachidicola, 100%.
In the case of `C[Si](Cn1cncn1)(c1ccccc1)c1ccc(Br)cc1` (stereo not drawn) [4-Bromophenyl(methyl)phenyl(1H-1,2,4-triazol-1-ylmethyl)silane], the pest or weed control at 100 ppm was found to be 0% in the assay with Phytophthora infestans; 0% in assay [1]; 80% with Helminthosporium maydis; 100% in the assay with Venturia inaequalis; 100% in the assay on Erysiphe cichoracearum; 80% in the assay on Pyricularia oryzae. The pest or weed control at 100 ppm with Rhizoctonia solani worked out at 90%; with Cercospora arachidicola, 100%.
`C[Si](C)(Cn1cncn1)c1ccccc1-c1ccccc1` [(1,1'-Biphenyl-2-yl)dimethyl(1H-1,2,4-triazol-1-ylmethyl)silane]: the pest or weed control at 100 ppm with Phytophthora infestans was determined as 50%; in assay [1], 0%; with Helminthosporium maydis, 90%; in the assay with Venturia inaequalis, 60%; in the assay with Erysiphe cichoracearum, 90%; in the assay on Pyricularia oryzae, 90%. Also, the pest or weed control at 100 ppm with Rhizoctonia solani came to 0%; in the assay with Cercospora arachidicola, 100%.
With `C[Si](C)(Cn1cncn1)c1cccc(-c2ccccc2)c1` [(1,1'-Biphenyl-3-yl)dimethyl(1H-1,2,4-triazol-1-ylmethyl)silane], the pest or weed control at 100 ppm in the assay with Phytophthora infestans came to 0%; in assay [1] it was 80%; in the assay with Helminthosporium maydis, 100%; in the assay with Venturia inaequalis, 50%; with Erysiphe cichoracearum it was 0%; in the assay with Pyricularia oryzae, 0%. Further, the values for the pest or weed control at 100 ppm in the assay on Rhizoctonia solani and in the assay on Cercospora arachidicola were 0% and 90%, respectively.
In the case of `C[Si](C)(Cn1cncn1)c1ccc(-c2ccccc2)cc1.[Cl][Cu][Cl]` [(1,1'-Biphenyl-4-yl)dimethyl(1H-1,2,4-triazol-1-ylmethyl)silane, 1:1 complex with cupric chloride], in the assay on Phytophthora infestans, the “% Control of Tomato Late Blight” value was found to be 90%. Moreover, the “% Control Wheat Rust” value in assay [1] turned out to be 100%. The “% Control of Southern Corn Leaf Blight” value in the assay with Helminthosporium maydis is 80%. Moreover, in the assay with Venturia inaequalis, the “% Control Apple Scab” value is recorded as 100%. In the assay on Erysiphe cichoracearum, the “% Control Cucumber Powdery Mildew” value is on record as 100%. In addition, in the assay with Pyricularia oryzae, the “% Control of Rice Blast” value was found to be 100%. Besides, in the assay on Rhizoctonia solani, the “% Control of Rice Sheath Blight” value is listed as 0%. The “% Control Peanut Easly Leafspot” value in the assay with Cercospora arachidicola came out at 100%.
With `C[Si](C)(Cn1cncn1)c1ccc(-c2ccccc2)cc1.O=S(=O)([O-])[O-].[Mn+2]` [(1,1'-Biphenyl-4-yl)dimethyl(1H-1,2,4-triazol-1-ylmethyl)silane, 1:1 complex with manganous sulfate], in the assay with Phytophthora infestans, the “% Control of Tomato Late Blight” value was determined as 0%. For the same molecule, the “% Control Wheat Rust” value in assay [1] stood at 90%. Further, the “% Control of Southern Corn Leaf Blight” value in the assay with Helminthosporium maydis is reported as 100%. For the same molecule, the “% Control Apple Scab” value in the assay on Venturia inaequalis was 100%. Besides, the “% Control Cucumber Powdery Mildew” value in the assay with Erysiphe cichoracearum was 90%. Moreover, the “% Control of Rice Blast” value in the assay with Pyricularia oryzae was determined as 0%. In the assay on Rhizoctonia solani, the “% Control of Rice Sheath Blight” value is 0%. Moreover, in the assay with Cercospora arachidicola, the “% Control Peanut Easly Leafspot” value is given as 100%.
Consider `Cc1ncnn1C[Si](C)(C)c1ccc(-c2ccccc2)cc1` [(1,1'-Biphenyl-4-yl)dimethyl(5-methyl-1H-1,2,4-triazol-1-ylmethyl)silane], for which the pest or weed control at 100 ppm was 80% in the assay with Phytophthora infestans; 100% in assay [1]; 80% with Helminthosporium maydis; 100% in the assay with Venturia inaequalis; 100% with Erysiphe cichoracearum; 0% with Pyricularia oryzae. For the same molecule, the values for the pest or weed control at 100 ppm in the assay on Rhizoctonia solani and in the assay on Cercospora arachidicola were 0% and 100%, respectively.
For the molecule `C[Si](O)(Cn1cncn1)c1ccc(-c2ccccc2)cc1` (stereo not drawn) [(1,1'-Biphenyl-4-yl)hydroxy(methyl)(1H-1,2,4-triazol-1-ylmethyl)silane], the pest or weed control at 100 ppm in the assay on Phytophthora infestans turned out to be 0%; in assay [1], 90%; in the assay on Helminthosporium maydis, 0%; in the assay with Venturia inaequalis, 100%; in the assay with Erysiphe cichoracearum, 100%; with Pyricularia oryzae, 0%. For the same molecule, the pest or weed control at 100 ppm turned out to be 0% with Rhizoctonia solani and 100% with Cercospora arachidicola.
As to `CC(C)O[Si](C)(Cn1cncn1)c1ccc(-c2ccccc2)cc1` (stereo not drawn) [(1,1'-biphenyl-4-yl)methyl(2-propoxy)(1H-1,2,4-triazol-1-ylmethyl)silane], the pest or weed control at 100 ppm in the assay on Phytophthora infestans was 0%; in assay [1] it was 100%; in the assay with Helminthosporium maydis it was 90%; with Venturia inaequalis, 100%; in the assay on Erysiphe cichoracearum it was 100%; with Pyricularia oryzae it was 0%. Moreover, the pest or weed control at 100 ppm with Rhizoctonia solani is 0%; in the assay on Cercospora arachidicola, 100%.
Consider `CC(C)(C)O[Si](C)(Cn1cncn1)c1ccccc1` (stereo not drawn) [(1,1-dimethylethoxy)methyl(phenyl)(1H-1,2,4-triazol-1-ylmethyl)silane], for which the pest or weed control at 100 ppm was 0% in the assay on Phytophthora infestans; 0% in assay [1]; 0% with Helminthosporium maydis; 0% with Venturia inaequalis; 100% with Erysiphe cichoracearum; 0% in the assay with Pyricularia oryzae. Also, the pest or weed control at 100 ppm with Rhizoctonia solani and in the assay with Cercospora arachidicola was 0% throughout.
For `C[Si](C)(Cn1cncn1)c1cc(Cl)cc(Cl)c1` [(3,5-Dichlorophenyl)dimethyl(1H-1,2,4-triazol-1-ylmethyl)silane], the pest or weed control at 100 ppm amounted to 0% with Phytophthora infestans; 80% in assay [1]; 40% in the assay on Helminthosporium maydis; 0% with Venturia inaequalis; 0% in the assay on Erysiphe cichoracearum; 0% with Pyricularia oryzae. The pest or weed control at 100 ppm in the assay with Rhizoctonia solani and with Cercospora arachidicola was 0% each time.

Source of the values: US4510136A (priority 1983, dated 1985).
